From patent US20150005347A1, “NITROGEN-CONTAINING HETEROCYCLIC DERIVATIVE HAVING 2-IMINO GROUP AND PEST CONTROL AGENT INCLUDING THE SAME” (MEIJI SEIKA PHARMA CO., LTD., priority 2012, published 2015)

Assays:
Type in all cases: in vivo
Plutella xylostella = Plutella xylostella control test, cabbage leaf disk foliar spray; details: for mortality at 100 ppm / mortality at 500 ppm: Plutella xylostella, 72 h, second instar larvae, three days after release, read-out: mortality of larvae; for mortality at 100 ppm: foliar treatment at 100 ppm; for mortality at 500 ppm: foliar treatment at 500 ppm; for % Mortality, Test Example1 Plutella xylostella: foliar treatment
Experimental: Test Example 1 Plutella xylostella Control Test
(§1) A leaf disk having a diameter of 5.0 cm was cut out from a cabbage in pot culture, and a drug solution of the compound of the present invention at a predetermined concentration, which had been prepared so as to be a 50% acetone water (0.05% Tween20 available), was sprayed to the leaf disk. After an air drying process, second instar larvae were released thereto. Thereafter, the larvae were left to stand in a thermostatic chamber (16 hours of light period-8 hours of dark period) at 25° C. […] Test in duplicate.
mortality larvae(%)={number of dead larvae/(number of survived larvae+number of dead larvae)}×100

Aphis gossypii = test: Pest control test of Aphis gossypii, cucumber leaf disk foliar spray; details: for mortality at 100 ppm / mortality at 500 ppm: Aphis gossypii, 72 h, first instar larvae, three days after release; for mortality at 100 ppm: foliar treatment at 100 ppm, read-out: mortality of larvae; for mortality at 500 ppm: foliar treatment at 500 ppm; for % Mortality, Test Example3 Aphis gossypii: foliar treatment
Experimental: Test Example 3 Pest Control Test of Aphis gossypii
as §1, with “2.0” for “5.0”, “cucumber” for “cabbage”, “first” for “second”
(§2) Mortality of larvae(%)={number of dead larvae/(number of survived larvae+number of dead larvae)}×100

Laodelphax striatella [1] = test: Pest control test of Laodelphax striatella, foliar spray on rice seedling; details: Laodelphax striatellus, 144 h; foliar treatment at 1.25 ppm; second instar larvae; six days after release; read-out: mortality of larvae
Experimental: Test Example 6 Pest Control Test of Laodelphax striatella
as §1, with “A” for “A leaf disk having a diameter of 5.0 cm was cut out from a cabbage in pot culture, and a”, “was foliar” for “was”, “a rice seedling in pot culture.” for “the leaf disk.”
as §2

Musca domestica = test: Pest control test of Musca domestica adults, sucrose pledget; details: 50 ppm in 40% sucrose liquid; four days after release
Experimental: Test Example 21 Pest Control Test of Musca domestica
A drug solution of the compound of the present invention, which had been adjusted to be 50 ppm with a 40% sucrose liquid, was adsorbed on a pledget, and the pledget was put into a vial. Two adults reared indoors were released thereto. Thereafter, the adults were left to stand indoors at room temperature of 25° C. […] When two adults were all agonized in death, it was judged to be effective.

[2] = system: Sogatella furcifera exhibiting drug resistance to fipronil; test: Soil irrigation test, Sogatella furcifera exhibiting drug resistance to fipronil; details: drug resistant populations
Experimental: Test Example 19 Pest Control Test of Sogatella furcifera
(§3) A rice seedling in pot culture was subjected to soil irrigation treatment with a drug solution of the compound of the present invention at a predetermined concentration, which had been prepared so as to be a 10% acetone water. […] Thereafter, the larvae were left to stand in a thermostatic chamber (16 hours of light period-8 hours of dark period) at 25° C. […] The test was performed in duplicate.
as §2
(§4) In addition, for the origin of test pests, bugs collected within the city of Odawara in 2010 as the drug resistant Sogatella furcifera, and bugs collected within the city of Chigasaki in 1970 and then successively reared indoors for a long time as the susceptible populations of Sogatella furcifera were used.

[3] = system: susceptible populations of Sogatella furcifera; test: Soil irrigation test, susceptible populations of Sogatella furcifera
Experimental: as §3, §2
Further, for comparison, the test against a populations of Sogatella furcifera which is highly susceptible to fipronil was performed by the same method as described above, and the results thereof are shown in Table 44.
as §4

[4] = system: Laodelphax striatella exhibiting drug resistance to fipronil; test: Soil irrigation test, Laodelphax striatella exhibiting drug resistance to fipronil; details: drug resistant populations
Experimental: Test Example 20 Pest Control Test of Laodelphax striatella
as §3, §2
(§5) In addition, for the origin of test pests, bugs collected within the Kumamoto prefecture in 2006 as the drug resistant Laodelphax striatella, and bugs successively reared indoors for a long time as the susceptible populations of Laodelphax striatella were used.

[5] = system: susceptible populations of Laodelphax striatella; test: Soil irrigation test, susceptible populations of Laodelphax striatella
Experimental: as §3, §2
Further, for comparison, the test against a populations of Laodelphax striatella which is highly susceptible to fipronil was performed by the same method as described above, and the results thereof are shown in Table 45.
as §5

Spodoptera litura = test: Pest control test against Spodoptera litura, cabbage leaf disk foliar spray
Experimental: Test Example 2 Pest Control Test Against Spodoptera litura
as §1, with “third” for “second”
as §2

[6] = system: Frankliniella occidentalis; test: Pest control test of Frankliniella occidentalis, kidney bean leaf disk foliar spray
Excerpt: Test Example 7 Pest Control Test of Frankliniella occidentalis
as §1, with “2.8” for “5.0”, “kidney bean” for “cabbage”, “first” for “second”
as §2

[7] = system: Trigonotylus caelestialium; test: Pest control test of Trigonotylus caelestialium, wheat seedling dipping; details: 10 ppm
Excerpt: Test Example 8 Pest Control Test of Trigonotylus caelestialium
Wheat seedling leaves and stems four days after the dissemination of seedlings were dipped for 30 seconds in a drug solution of the compound of the present invention at a predetermined concentration, which had been prepared so as to be a 50% acetone water (0.05% Tween20 available). After an air drying process, the wheat seedling leaves and stems were placed into a glass tube, and two second instar larvae of Trigonotylus caelestialium were released to the same glass tube. After the larvae were released, the tube was lidded to leave the larvae to stand in a thermostatic chamber at 25° C. In order to supply water to the wheat during the test, water was given to the wheat from the bottom of the glass tube.
as §2

Laodelphax striatella [8] = test: Pest control test of Laodelphax striatella, soil irrigation treatment of rice seedling; details: soil irrigation treatment
Excerpt: <Soil Irrigation Treatment Test>
Test Example 10 Pest Control Test of Laodelphax striatellua
(§6) A rice seedling in pot culture was subjected to soil irrigation treatment with a drug solution of the compound of the present invention at a predetermined concentration, which had been prepared so as to be a 10% acetone water. Three days after the treatment, ten second instar larvae of Laodelphax striatella were each released thereto. Thereafter, the larvae were left to stand in a thermostatic chamber (16 hours of light period-8 hours of dark period) at 25° C. […] The test was performed in duplicate.
as §2

Nilaparvata lugens = test: Pest control test of Nilaparvata lugens, soil irrigation treatment; details: soil irrigation treatment
Experimental: Test Example 12 Pest Control Test of Nilaparvata lugens
as §6, with “Nilaparvata lugens” for “Laodelphax striatella”
as §2

[9] = system: Nilaparvata lugens exhibiting drug resistance to imidacloprid; details: soil irrigation
Experimental: Test Example 18 Pest Control Test of Drug-Resistant Nilaparvata lugens
as §3, §2
(§7) Further, for the origin of test pests, bugs collected outdoors within the Kumamoto prefecture in 2007 as the drug resistant Nilaparvata lugens, and bugs collected within the Kagoshima prefecture and then successively reared indoors for a long time as the imidacloprid susceptible populations of Nilaparvata lugens were used.

[10] = system: imidacloprid susceptible populations of Nilaparvata lugens; test: Soil irrigation test, imidacloprid susceptible populations of Nilaparvata lugens; details: Rate 0.05 mg/pot
Experimental: as §3, §2
Further, for comparison, the test against some population of Nilaparvata lugens which is highly susceptible to imidacloprid was performed by the same method as described above, and the results thereof are shown in Table 43.
as §7

CN=C(/N=c1\ccccn1Cc1ccc(Cl)nc1)C(F)(F)F [Compound 1-42, N-[1-((6-chloropyridin-3-yl)methyl)pyridin-2(1H)-ylidene]-2,2,2-trifluoro-N′-methylacetimidamide]
mortality at 100 ppm (Plutella xylostella): ≥ 80%
mortality at 500 ppm (Plutella xylostella): ≥ 80%
mortality at 100 ppm (Aphis gossypii): ≥ 80%
mortality at 500 ppm (Aphis gossypii): ≥ 80%
mortality at 1.25 ppm (Laodelphax striatella [1]): ≥ 80%
activity against adults (effective when two adults were all agonized in death) (Musca domestica): all the adults are agonized in death

N#Cc1nn(-c2c(Cl)cc(C(F)(F)F)cc2Cl)c(N)c1[S+]([O-])C(F)(F)F (stereo not drawn) [Fipronil]
Insecticidal effects against Sogatella furcifera (mortality of larvae %), Drug resistant populations six days after the treatment ([2]; Rate 0.01 mg/pot): 40%
Insecticidal effects against Sogatella furcifera (mortality of larvae %), Drug resistant populations six days after the treatment ([2]; Rate 0.05 mg/pot): 90%
Insecticidal effects against Sogatella furcifera (mortality of larvae %), Susceptible populations six days after the treatment ([3]; Rate 0.005 mg/pot): 100%
Insecticidal effects against Sogatella furcifera (mortality of larvae %), Susceptible populations six days after the treatment ([3]; Rate 0.01 mg/pot): 100%
Insecticidal effects against Sogatella furcifera (mortality of larvae %), Susceptible populations six days after the treatment ([3]; Rate 0.01 mg/pot as printed in the last line (below 0.005)): 78%
Insecticidal effects against Laodelphax striatella (mortality of larvae %), Drug resistant populations six days after the treatment ([4]; Rate 0.02 mg/pot): 76%
Insecticidal effects against Laodelphax striatella (mortality of larvae %), Drug resistant populations six days after the treatment ([4]; Rate 0.05 mg/pot): 90%
Insecticidal effects against Laodelphax striatella (mortality of larvae %), Susceptible populations six days after the treatment ([5]; Rate 0.005 mg/pot): 89%
Insecticidal effects against Laodelphax striatella (mortality of larvae %), Susceptible populations six days after the treatment ([5]; Rate 0.01 mg/pot): 100%

ON=C(/N=c1\ccccn1Cc1ccc(Cl)nc1)C(F)(F)F [Compound 1-499, N-[1-((6-chloropyridin-3-yl)methyl)pyridin-2(1H)-ylidene]-2,2,2-trifluoro-N′-hydroxyacetimidamide]
mortality at 100 ppm (Plutella xylostella): ≥ 80%
mortality at 500 ppm (Plutella xylostella): ≥ 80%
mortality at 500 ppm (Spodoptera litura; Spodoptera litura, 72 h, foliar treatment at 500 ppm, third instar larvae, three days after release, read-out: mortality of larvae): ≥ 80%
mortality at 100 ppm (Aphis gossypii): ≥ 80%
mortality at 500 ppm (Aphis gossypii): ≥ 80%
mortality at 1.25 ppm (Laodelphax striatella [1]): ≥ 80%
mortality at 500 ppm ([6]; Frankliniella occidentalis, 72 h, foliar treatment at 500 ppm, first instar larvae, three days after release, read-out: mortality of larvae): ≥ 80%

O=C(ON=C(/N=c1\ccccn1Cc1ccc(Cl)nc1)C(F)(F)F)c1ccccc1 [Compound 1-519, N-(benzoyloxy)-N-[1-((6-chloropyridin-3-yl)methyl)pyridin-2(1H)-ylidene]-2,2,2-trifluoroacetimidamide]
mortality at 100 ppm (Plutella xylostella): ≥ 80%
mortality at 500 ppm (Plutella xylostella): ≥ 80%
mortality at 100 ppm (Aphis gossypii): ≥ 80%
mortality at 500 ppm (Aphis gossypii): ≥ 80%
mortality at 1.25 ppm (Laodelphax striatella [1]): ≥ 80%

Fc1cc(Cn2ccccc2=NC(=S)C(F)(F)F)cnc1Cl [Compound 5-20]
% Mortality, Test Example1 Plutella xylostella (Plutella xylostella; 5 ppm): 20%
% Mortality, Test Example1 Plutella xylostella (Plutella xylostella; 20 ppm): 100%
% Mortality, Test Example1 Plutella xylostella (Plutella xylostella; 100 ppm): 100%
% Mortality, Test Example2 Spodoptera litura (Spodoptera litura; foliar treatment, 100 ppm): 60%
% Mortality, Test Example3 Aphis gossypii (Aphis gossypii; 1.25 ppm): 55%
% Mortality, Test Example3 Aphis gossypii (Aphis gossypii; 5 ppm): 100%
% Mortality, Test Example7 Frankliniella occidentalis ([6]; foliar treatment, 100 ppm): 50%
% Mortality, Test Example8 Trigonotylus caelestialium [7]: 17%
% Mortality, Test Example 10 Laodelphax striatella (Laodelphax striatella [8]; 0.005 mg/pot): 26%
% Mortality, Test Example 10 Laodelphax striatella (Laodelphax striatella [8]; 0.01 mg/pot): 52%
% Mortality, Test Example 10 Laodelphax striatella (Laodelphax striatella [8]; 0.05 mg/pot): 95%
% Mortality, Test Example 12 Nilaparvata lugens (Nilaparvata lugens; 0.01 mg/pot): 90%
% Mortality, Test Example 12 Nilaparvata lugens (Nilaparvata lugens; 0.05 mg/pot): 100%
Insecticidal effects against Nilaparvata lugens (mortality of larvae %), Drug resistant populations three days after the treatment ([9]; Rate 0.05 mg/pot, drug resistant populations): 100%
insecticidal effects against drug resistant Nilaparvata lugens ([9]; imidacloprid-resistant): high insecticidal effects
mortality of larvae against drug resistant populations compared with susceptible populations of Nilaparvata lugens ([9]; imidacloprid-resistant vs susceptible): equivalent mortality of larvae
Insecticidal effects against Nilaparvata lugens (mortality of larvae %), Susceptible populations three days after the treatment [10]: 91%
activity against adults (effective when two adults were all agonized in death) (Musca domestica): all the adults are agonized in death
